Results taken from patent US20260027087A1, “DOSING REGIMENS COMPRISING A KAT6 INHIBITOR FOR THE TREATMENT OF CANCER” (PFIZER INC., priority 2022, published 2026).
Where two headings read alike, the source gives them in different places.

Legend:
[1] = Phase 1 clinical trial: COMPOUND A plasma pharmacokinetics; assay type: in vivo, human; conditions: for CL/F (apparent clearance) / Cmax / AUC: geometric mean (CV %); for Tmax / Cmax / AUC: human, plasma; for AUC: read-out: AUC24
Protocol: The patients in this trial are intolerant of or resistant to standard therapy.
COMPOUND A was orally administered at 2 mg, 5 mg, 8 mg, and 15 mg QD alone or 5 mg QD in combination with 500 mg of fulvestrant.
Preliminary pharmacokinetic parameters are available from 23 participants following the 1st oral dose (Day 1 of Cycle 1) and at steady state (Day 15 of Cycle 1) and presented in Table 1.
1S COMPOUND A was orally administered at 1 mg, 2 mg, 5 mg, 8 mg, and 15 mg QD alone or 5 mg QD in combination with 500 mg of fulvestrant.
A total of 29 participants had evaluable PK concentration data in Part 1A and Part 1B, at the time of the data cut-off date of 30 Sep. 2022. Of these participants, two (2) in the 1 mg QD dose group were excluded from Cycle 1 Day 15 summaries due to either dose interruption impacting PK analysis or sample collection after the data cut-off date.
Participants were to swallow COMPOUND A whole tablets and were not to manipulate or chew the study intervention prior to swallowing. COMPOUND A was administered QD by mouth for all cohorts on a continuous basis. The once daily dose was administered in 24±3 hour intervals (i.e., no less than 21 hours and no more than 27 hours apart). All cycles were 28 days in length.

[2] = Human pharmacokinetics predicted from preclinical data; conditions: in humans, based on preclinical data
[3] = as of 23 Mar. 2022, 31 patients dosed

COc1ccccc1S(=O)(=O)Nc1noc2cc(Cn3cccn3)cc(OC)c12 [COMPOUND A, 2-Methoxy-N-{4-methoxy-6-[(1H-pyrazol-1-yl)methyl]-1,2-benzoxazol-3-yl}benzene-1-sulfonamide]
time to steady state ([1]; 1 mg to 15 mg QD, cut-off 30 Sep. 2022): achieved by Cycle 1 Day 15 | Rac (ratio of AUC24 at Cycle 1 Day 15 to AUC24 at Cycle 1 Day 1) ([1]; 5 mg QD oral in combination with fulvestrant, N=4, median (minimum, maximum)): 4.2 (3.2, 5.1) | Rac (ratio of AUC24 at Cycle 1 Day 15 to AUC24 at Cycle 1 Day 1) ([1]; 5 mg QD oral monotherapy, N=4, median (minimum, maximum)): 4.1 (2.9, 5.5) | Rac (ratio of AUC24 at Cycle 1 Day 15 to AUC24 at Cycle 1 Day 1) ([1]; 8 mg QD oral monotherapy, N=7, median (minimum, maximum)): 3.8 (3.1, 5.1) | Rac (ratio of AUC24 at Cycle 1 Day 15 to AUC24 at Cycle 1 Day 1) ([1]; 15 mg QD oral monotherapy, N=6, median (minimum, maximum)): 3.8 (2.3, 4.7) | CL/F (apparent clearance) ([1]; C1D15, 5 mg QD oral in combination with fulvestrant, N=4): 0.10 (26.9) L/hr | CL/F (apparent clearance) ([1]; C1D15, 5 mg QD oral monotherapy, N=4): 0.14 (23.9) L/hr | CL/F (apparent clearance) ([1]; C1D15, 8 mg QD oral monotherapy, N=7): 0.10 (9.7) L/hr | CL/F (apparent clearance) ([1]; C1D15, 15 mg QD oral monotherapy, N=6): 0.12 (43.2) L/hr | drug-drug interaction between COMPOUND A and fulvestrant ([1]; CL/F similar alone and in combination): no apparent drug-drug interaction | linearity of pharmacokinetics ([1]; CL/F similar at each dose level, 2 mg to 15 mg, cut-off 23 Mar. 2022): linear | linearity of PK ([1]; between 1 mg and 15 mg QD dose regimens, cut-off 30 Sep. 2022): linear | COMPOUND A exposure (AUC24) versus dose ([1]; dose range 2 mg to 15 mg, alone or in combination with fulvestrant): increased proportionally when dose was increased | Tmax ([1]; oral, following repeated daily dosing to Day 15, read-out: median Tmax): 3 h | Cmax ([1]; po, 5 mg, C1D1 (after 1st dose), 5 mg QD oral monotherapy, N=4): 508 ng/mL | AUC ([1]; po, 5 mg, C1D1, 5 mg QD oral monotherapy, N=4): 8900 ng·h/mL | Tmax ([1]; po, 5 mg, C1D1, 5 mg QD oral monotherapy, N=4, median (minimum, maximum), read-out: Tmax): 3.5 h | Cmax ([1]; po, 5 mg, C1D15 (steady state), 5 mg QD oral monotherapy, N=4): 1710 ng/mL | AUC ([1]; po, 5 mg, C1D15, 5 mg QD oral monotherapy, N=4): 35900 ng·h/mL | Tmax ([1]; po, 5 mg, C1D15, 5 mg QD oral monotherapy, N=4, median (minimum, maximum), read-out: Tmax): 3 h | Cmax ([1]; po, 8 mg, C1D1 (after 1st dose), 8 mg QD oral monotherapy, N=7): 1050 ng/mL | AUC ([1]; po, 8 mg, C1D1, 8 mg QD oral monotherapy, N=7): 20500 ng·h/mL | Tmax ([1]; po, 8 mg, C1D1, 8 mg QD oral monotherapy, N=7, median (minimum, maximum), read-out: Tmax): 3 h | Cmax ([1]; po, 8 mg, C1D15 (steady state), 8 mg QD oral monotherapy, N=7): 3620 ng/mL | AUC ([1]; po, 8 mg, C1D15, 8 mg QD oral monotherapy, N=7): 76500 ng·h/mL | Tmax ([1]; po, 8 mg, C1D15, 8 mg QD oral monotherapy, N=7, median (minimum, maximum), read-out: Tmax): 3 h | Cmax ([1]; po, 15 mg, C1D1 (after 1st dose), 15 mg QD oral monotherapy, N=6): 1940 ng/mL | AUC ([1]; po, 15 mg, C1D1, 15 mg QD oral monotherapy, N=6): 35700 ng·h/mL | Tmax ([1]; po, 15 mg, C1D1, 15 mg QD oral monotherapy, N=6, median (minimum, maximum), read-out: Tmax): 3.5 h | Cmax ([1]; po, 15 mg, C1D15 (steady state), 15 mg QD oral monotherapy, N=6): 6030 ng/mL | AUC ([1]; po, 15 mg, C1D15, 15 mg QD oral monotherapy, N=6): 127000 ng·h/mL | Tmax ([1]; po, 15 mg, C1D15, 15 mg QD oral monotherapy, N=6, median (minimum, maximum), read-out: Tmax): 3 h | Cmax ([1]; po, C1D1 (after 1st dose), 5 mg QD oral in combination with fulvestrant, N=4): 641 ng/mL | AUC ([1]; po, C1D1, 5 mg QD oral in combination with fulvestrant, N=4): 12100 ng·h/mL | Tmax ([1]; po, C1D1, 5 mg QD oral in combination with fulvestrant, N=4, median (minimum, maximum), read-out: Tmax): 6 h | Cmax ([1]; po, C1D15 (steady state), 5 mg QD oral in combination with fulvestrant, N=4): 2340 ng/mL | AUC ([1]; po, C1D15, 5 mg QD oral in combination with fulvestrant, N=4): 50100 ng·h/mL | Tmax ([1]; po, C1D15, 5 mg QD oral in combination with fulvestrant, N=4, median (minimum, maximum), read-out: Tmax): 6 h | steady-state concentrations relative to Cerf targets (defined from preclinical models) ([1]; when dosed at ≥1 mg): near or above Cerf targets | predicted Vss [2]: ~0.1 L/kg | predicted oral bioavailability [2]: high oral bioavailability | predicted plasma CL [2]: ~6 mL/h/kg | predicted t [2]: approximately 12 h | COVID-19, all-causality SAE, by patient frequency (as of 23 Mar. 2022): 2 | COVID-19, all-causality Grade 3 TEAE [3]: 3.2% | Pneumonitis, Grade 5 TEAE [3]: 3.2% | Pneumonitis, Grade 5 treatment-related AE [3]: 3.2% | Urinary tract infection, all-causality Grade 3 TEAE [3]: 3.2% | MTD (cut-off 30 Sep. 2022): not identified | Alanine aminotransferase increased, all-causality Grade 3 TEAE (human, in vivo): 6.5% | Alanine aminotransferase increased, all-causality TEAE, any grade (human, in vivo): 25.8% | Anaphylactic reaction, all-causality Grade 3 TEAE (human, in vivo): 3.2% | Anemia, Grade 3 treatment-related AE (human, in vivo): 16.1% | Anemia, TRAE, any grade (human, in vivo): 54.8% | Anemia, all-causality Grade 3 TEAE (human, in vivo): 16.1% | Anemia, all-causality TEAE, any grade (human, in vivo): 54.8% | Aspartate aminotransferase increased, all-causality TEAE, any grade (human, in vivo): 29.0% | Bone pain, all-causality SAE, by patient frequency (human, in vivo): 1 | Diarrhea, Grade 3 treatment-related AE (human, in vivo): 3.2% | Diarrhea, TRAE, any grade (human, in vivo): 29.0% | Diarrhea, all-causality Grade 3 TEAE (human, in vivo): 3.2% | Diarrhea, all-causality TEAE, any grade (human, in vivo): 35.5% | Dysgeusia, TRAE, any grade (human, in vivo): 80.6% | Dysgeusia, all-causality TEAE, any grade (human, in vivo): 83.9% | Dysphagia, all-causality SAE, by patient frequency (human, in vivo): 1 | Embolism, Grade 3 treatment-related AE (human, in vivo): 3.2% | Embolism, all-causality Grade 3 TEAE (human, in vivo): 3.2% | Embolism, all-causality SAE, by patient frequency (human, in vivo): 1 | Fatigue, all-causality Grade 3 TEAE (human, in vivo): 3.2% | Fatigue, all-causality TEAE, any grade (human, in vivo): 25.8% | Flank pain, all-causality Grade 3 TEAE (human, in vivo): 3.2% | Flank pain, all-causality SAE, by patient frequency (human, in vivo): 1 | Grade 4 treatment-related AEs (human, in vivo): no Grade 4 treatment-related AEs | Haematuria, all-causality Grade 3 TEAE (human, in vivo): 3.2% | Haematuria, all-causality SAE, by patient frequency (human, in vivo): 1 | Hypercalcaemia, Grade 4 TEAE (human, in vivo): 3.2% | Hypotension, all-causality Grade 3 TEAE (human, in vivo): 6.5% | Hypotension, all-causality SAE, by patient frequency (human, in vivo): 2 | Hypotension, treatment-related SAE, by patient frequency (human, in vivo): 1 | Lymphocyte count decreased, Grade 3 treatment-related AE (human, in vivo): 3.2% | Lymphocyte count decreased, all-causality Grade 3 TEAE (human, in vivo): 6.5% | Neutrophil count decreased/Neutropenia, Grade 3 treatment-related AE (human, in vivo): 29.1% | Neutrophil count decreased/Neutropenia, TRAE, any grade (human, in vivo): 51.6% | Neutrophil count decreased/Neutropenia, all-causality Grade 3 TEAE (human, in vivo): 29.1% | Neutrophil count decreased/Neutropenia, all-causality TEAE, any grade (human, in vivo): 51.6% | Platelet count decreased, TRAE, any grade (human, in vivo): 22.6% | Platelet count decreased, all-causality TEAE, any grade (human, in vivo): 22.6% | Pneumonitis, all-causality SAE, by patient frequency (human, in vivo): 1 | Pneumonitis, treatment-related SAE, by patient frequency (human, in vivo): 1 | Pulmonary embolism, all-causality Grade 3 TEAE (human, in vivo): 3.2% | Thrombocytopenia, Grade 3 treatment-related AE (human, in vivo): 3.2% | Thrombocytopenia, all-causality Grade 3 TEAE (human, in vivo): 3.2% | White blood cell count decreased, Grade 3 treatment-related AE (human, in vivo): 9.7% | White blood cell count decreased, TRAE, any grade (human, in vivo): 29.0% | White blood cell count decreased, all-causality Grade 3 TEAE (human, in vivo): 9.7% | White blood cell count decreased, all-causality TEAE, any grade (human, in vivo): 29.0% | all-causality SAEs, Total Number of Cases (human, in vivo): 9 | all-causality SAEs, Total Number of Subjects (human, in vivo): 8 | all-causality SAEs, Total Number of events (human, in vivo): 10 | patients with at least one TEAE (human, in vivo): 31 patients | patients with at least one treatment-related adverse event (TRAE) (human, in vivo): 31 patients | severity of TRAEs (human, in vivo): majority of TRAEs were G1-2 | treatment-related SAEs, Total Number of Cases (human, in vivo): 2 | treatment-related SAEs, Total Number of Subjects (human, in vivo): 2 | treatment-related SAEs, Total Number of events (human, in vivo): 2 | RDE (human, in vivo, 28 days): 5 mg QD | Recommended dose for expansion (RDE) (human, in vivo, 28 days): 5 mg QD | kind of DLTs (human, in vivo, 28 days): Grade 3 neutropenia
